Measurements published in patent US8853257B2, “Succinimide derivatives as ocular hypotensive agents” (priority 2005, dated 2014).
Where “and” joins values, the source holds several entries; their conditions need not be identical. Equal values may be shown once.

Assays:
[1] = tested on: Dark Agauti (DA) pigmented rats; test: Effect of topical ethosuximide on intraocular pressure in rats (Tono-Pen); format: in vivo; details: for IOP, treated eye (T), individual rats: one value per rat; for IOP, treated eye (T), Average X: rats
Protocol: Preliminary ocular pharmacodynamic studies were conducted to study the effect of ethosuximide on the intraocular pressure in rats by measuring IOP before and after administration of ethosuximide. IOP measurements were taken by a tonopen instrument. Ethosuximide was applied as a viscous solution obtained from Petnidan® capsules (Desitin, Hamburg, Germany). A recent study at Alcon Research laboratory (Pang I H, Wang W H, Clark A F: Acute effects of glaucoma medications on rat intraocular pressure, Exp Eye Res 2005, February; 80(2)207-14) has shown rats to be a proper animal model for glaucoma study. Another study at the Casey Eye Institute (Moore C G, Milne S T, Morrison J C: Noninvasive measurements of rat intraocular pressure with the Tono-Pen. Invest. Opthalmol. Vis. Sci. 1993 February; 34(2)363-9) has shown that a tonopen can be used reliably to measure IOP in normal rat eye.
Six Dark Agauti (DA) pigmented rats, (250-300 g in weight) were slightly sedated with 1.5-2 mg (0.15-0.2 ml) of intraperitoneal xylazine. One eye of each rat was randomly selected to receive topical administration of 50 µl of 250 mg/0.2 ml ethosuximide solution (content of Petnidan capsules). The second (control) eye received 50 µl of viscoelastic solution without the active ingredient (Viscotears™ manufactured by Novartis, Switzerland). At t=0 (immediately before) and at 30, 60 and 120 minutes after administration, topical anesthetic benoxinate was applied to both eyes and the intraocular pressures (IOP) were measured by a Tono-Pen XL tonometer (Medtronics). IOP values were recorded as the mean value of 6-10 successive measurements to minimize variability. The code, namely which eye of a pair was treated, was unknown to the technician who performed the IOP measurements. One rat expired after 1 hour due to excessive sedation. Five rats completed the experiment. In 2 out of 6 eyes that received the drug (vs. 1 of 6 eyes that were administered viscoelastic vehicle) a mild to moderate limbal vascular congestion was noticed, which tended to subside at 60 minutes.
At the end of the experiment, the code was broken and the IOP values in control and treated eyes were compared by statistical analysis.

[2] = tested on: normo-tensive New Zealand White (NZW) rabbits; test: Effect of topical ethosuximide on intraocular pressure in rabbits (Tono-Pen); format: in vivo; details: for IOP, treated eye (T), individual rabbits: one value per rabbit
Protocol: Another study was conducted, in order to study the effect of ethosuximide on the intraocular pressure in rabbits by measuring IOP before and after administration of ethosuximide. IOP measurements were taken by a tonopen instrument. Ethosuximide was applied as a viscous solution obtained from Petnidan® capsules (Desitin, Hamburg, Germany).
Five fully awake, normo-tensive New Zealand White (NZW) rabbits, (each approximately 3.0 kg in weight) were used in this study. One eye of each rabbit was randomly selected to receive topical administration of 50 μl of 250 mg/0.2 ml ethosuximide solution (content of Petnidan capsules). The second (control) eye received 50 μl of viscoelastic solution without the active ingredient (Viscotears™ manufactured by Novartis, Switzerland). At t=0 (baseline, immediately before) and at 0.5, 1, 2, 4 and 6 hours after administration, topical anesthetic benoxinate was applied to both eyes and the intraocular pressures were measured by a Tono-Pen XL tonometer (Medtronics). IOP values were recorded as the mean value of 6-10 successive measurements to minimize variability. The code, namely which eye of a pair was treated, was (unknown to the technician who performed the IOP measurements. In 3 out of 5 eyes that received the drug (vs. 1 of 5 eyes that were administered viscoelastic vehicle) a mild to moderate limbal vascular congestion was noticed, which tended to subside at 60 minutes. In one treated eye the congestion persisted for two hours. At the end of the experiment, the code was broken and the IOP values in control and treated eyes were compared. The results are summarized in Table 2.

[3] = 60 min after topical administration
[4] = 120 min after topical administration

CCC1(C)CC(=O)NC1=O (centres unmarked) [ethosuximide]
IOP, treated eye (T), individual rats ([1]; 30 min after topical 50 ul of 250 mg/0.2 ml ethosuximide solution): 17 mmHg and 16 mmHg and 15 mmHg and 15.3 mmHg and 20.5 mmHg and 22 mmHg | IOP, treated eye (T), Average X ([1]; 30 min after topical administration): 17.6 mmHg | IOP, treated eye (T), individual rats [1, 3]: 21.3 mmHg (2×) and 30 mmHg and 18 mmHg and 14.6 mmHg | IOP, treated eye (T), Average X [1, 3]: 21.0 mmHg | IOP, treated eye (T), individual rats [1, 4]: 22 mmHg and 17 mmHg and 19 mmHg and 20.5 mmHg and 20.2 mmHg | IOP, treated eye (T), Average X [1, 4]: 19.7 mmHg | eyes with mild to moderate limbal vascular congestion ([1]; rat eyes that received the drug (vs. 1 of 6 vehicle eyes), tended to subside at 60 minutes): 2 out of 6 | IOP, treated eye (T), individual rabbits ([2]; 0.5 hour after topical 50 μl of 250 mg/0.2 ml ethosuximide solution): 17.3 mmHg and 18.3 mmHg and 16.3 mmHg and 19.7 mmHg and 20.0 mmHg | IOP, treated eye (T), Mean ([2]; 0.5 hour, rabbits): 18.3 mmHg | IOP, treated eye (T), individual rabbits ([2]; 1 hour after topical administration): 12.8 mmHg and 16.0 mmHg and 15.0 mmHg and 19.7 mmHg and 18.5 mmHg | Δ IOP, difference in mean IOP (T − C) ([2]; 1 hour, p .557): −0.6 mmHg | IOP, treated eye (T), Mean ([2]; 1 hour, rabbits): 16.0 mmHg | IOP, treated eye (T), individual rabbits ([2]; 2 hours after topical administration): 17.3 mmHg and 20.0 mmHg and 19.6 mmHg and 16.3 mmHg and 19.8 mmHg | Δ IOP vs t = o, mean IOP of treated eyes ([2]; 2 hours versus baseline, p .420): −1.4 mmHg | IOP, treated eye (T), Mean ([2]; 2 hours, rabbits): 18.6 mmHg | IOP, treated eye (T), individual rabbits ([2]; 4 hours after topical administration): 15.5 mmHg and 15.8 mmHg and 13.0 mmHg and 12.5 mmHg and 17.5 mmHg | IOP, treated eye (T), Mean ([2]; 4 hours, rabbits): 14.9 mmHg | IOP, treated eye (T), individual rabbits ([2]; 6 hours after topical administration): 19.5 mmHg and 20.0 mmHg and 13.5 mmHg and 19.4 mmHg and 16.0 mmHg | Δ IOP vs t = o, mean IOP of treated eyes ([2]; 6 hours versus baseline, p .404): −2.3 mmHg | Δ IOP, difference in mean IOP (T − C) ([2]; 6 hours, p .920): +0.1 mmHg | IOP, treated eye (T), Mean ([2]; 6 hours, rabbits): 17.7 mmHg | eyes with mild to moderate limbal vascular congestion ([2]; rabbit eyes that received the drug (vs. 1 of 5 vehicle eyes), tended to subside at 60 minutes): 3 out of 5 | treated eyes in which the congestion persisted for two hours ([2]; rabbits): one
